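Following 48 hours of exposure in 96-well plates, responses at five concentrations were used to interpolate endpoints linearly. GI50 is the concentration that inhibits growth by half.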 Calls of active or inactive are those of the source. Cut-off read from the data, not from the text of the source: active = GI50 up to about 1.1 µM and inactive = higher. Bounds are passed on as bounds.

Among the test systems are 786-0; CAKI-1; HCT-15; HL-60; HOP-62; HOP-92; Hs-578T; K562; KM12; LOX IMVI; MDA-N; Malme-3M; NCI/ADR-RES; OVCAR-4; RXF 393; SK-MEL-5; SW-620; UACC-257.
What all share (assay): growth of human tumour cells (NCI), 48 h

As to `C(=C\c1ccco1)/c1cccc(/C=C/c2ccco2)n1`, the GI50 is > 50 µM (inactive) in the test with 786-0; > 50 µM (inactive) in the test with CAKI-1; greater than 50 µM in the test with HCT-15; > 50 µM (inactive) in the test with HL-60; > 50 µM (inactive) in the test on HOP-62; > 50 µM (inactive) with HOP-92. The GI50 in the test with Hs-578T, in the test on K562, in the test with KM12, in the test on LOX IMVI, with MDA-N and in the test on Malme-3M was > 50 µM (inactive) throughout. The GI50 in the test with NCI/ADR-RES, in the test with OVCAR-4, in the test on RXF 393, in the test with SK-MEL-5, in the test on SW-620 and in the test on UACC-257 was > 50 µM (inactive) throughout.
On to `COc1ccccc1-c1cc(O)c2cc3c(cc2n1)OCO3`, for which the GI50 with 786-0 was 31.9 µM (inactive); in the test with HCT-15, 12.3 µM; with HL-60, 19.5 µM (inactive); with HOP-62, 14.3 µM (inactive); with K562, 8.65 µM (inactive); in the test with LOX IMVI, 52.4 µM (inactive). Moreover, the GI50 in the test with Malme-3M was 6.82 µM (inactive); in the test on OVCAR-4 it was 25.5 µM (inactive); with SK-MEL-5, 5.19 µM (inactive); in the test on SW-620 it was 17.7 µM (inactive); with UACC-257, 80.9 µM (inactive).
In the case of `CCOC(=O)/C(=C\NC(C)(C)C)c1nc2ccccc2o1`, the GI50 is 24.6 µM (inactive) in the test with 786-0; 60.4 µM (inactive) in the test with CAKI-1; 36.6 µM in the test on HCT-15; 2.42 µM (inactive) in the test with HL-60; > 100 µM (inactive) in the test with HOP-62; 33.5 µM (inactive) in the test on HOP-92. In addition, the GI50 with Hs-578T was 28.3 µM (inactive); in the test with KM12 it was 33.3 µM (inactive); with LOX IMVI, 27.4 µM (inactive); in the test with MDA-N it was 32 µM (inactive); in the test with Malme-3M, 35.7 µM (inactive); in the test with NCI/ADR-RES, 35.6 µM (inactive). The GI50 is 31.4 µM (inactive) in the test with OVCAR-4; 24.7 µM (inactive) in the test with RXF 393; 12.8 µM (inactive) with SK-MEL-5; 49.7 µM (inactive) in the test on SW-620; 20.1 µM (inactive) in the test with UACC-257.
As to `O=C1CCCC[C@H]1C(O)CC1CC(=O)N(c2ccccc2)C(=O)C1` (stereo partly drawn), the GI50 with 786-0 was > 100 µM (inactive); with CAKI-1, > 100 µM (inactive); in the test with HCT-15 it was greater than 100 µM; in the test with HL-60, > 100 µM (inactive); in the test on HOP-62, > 100 µM (inactive); in the test with HOP-92, > 100 µM (inactive). The GI50 with Hs-578T, with K562, with KM12, with LOX IMVI, in the test with MDA-N and in the test with Malme-3M was > 100 µM (inactive) each time. In addition, the GI50 with NCI/ADR-RES, in the test on OVCAR-4, in the test on RXF 393, in the test with SK-MEL-5, with SW-620 and in the test on UACC-257 was > 100 µM (inactive) in each case.
On to `Cc1c(C(=O)O)n(C)c(=O)n(C)c1=O`, for which the GI50 in the test with 786-0 was > 100 µM (inactive); with CAKI-1, > 100 µM (inactive); with HCT-15 it was greater than 100 µM; in the test on HL-60, > 100 µM (inactive); in the test on HOP-62, > 100 µM (inactive); in the test with HOP-92, > 100 µM (inactive). Besides, the GI50 in the test with K562, with KM12, in the test with LOX IMVI, in the test on Malme-3M, in the test with OVCAR-4 and in the test on RXF 393 was > 100 µM (inactive) throughout. Moreover, the GI50 with SK-MEL-5, in the test with SW-620 and in the test on UACC-257 was > 100 µM (inactive) each time.
Take `CC(Cc1ccc(O)cn1)(NC(=O)c1ccccc1)C(=O)O` (stereo not drawn): the GI50 with 786-0 is > 100 µM (inactive); in the test on CAKI-1 it was > 100 µM (inactive); in the test with HCT-15 it was greater than 100 µM; in the test on HL-60, > 100 µM (inactive); in the test on HOP-62 it was > 100 µM (inactive); in the test on HOP-92, 74 µM (inactive). In addition, the GI50 with Hs-578T, in the test on K562, in the test on KM12, in the test with LOX IMVI, in the test on MDA-N and in the test with Malme-3M was > 100 µM (inactive) each time. Further, the GI50 with NCI/ADR-RES, in the test with OVCAR-4, with RXF 393, in the test with SK-MEL-5, with SW-620 and in the test on UACC-257 was > 100 µM (inactive) each time.
Consider `N#Cc1c(O)c(C=O)c(=O)n2c1[nH]c1ccccc12`, for which the GI50 in the test on 786-0 is > 100 µM (inactive); with CAKI-1, > 100 µM (inactive); in the test on HCT-15, greater than 100 µM; with HOP-62, > 100 µM (inactive); in the test with HOP-92, > 100 µM (inactive); with Hs-578T, > 100 µM (inactive). For the same molecule, the GI50 in the test on K562, in the test on KM12, in the test on LOX IMVI, in the test with MDA-N, in the test with Malme-3M and in the test with NCI/ADR-RES was > 100 µM (inactive) throughout. Besides, the GI50 in the test on OVCAR-4, in the test on RXF 393, with SK-MEL-5, with SW-620 and in the test on UACC-257 was > 100 µM (inactive) throughout.
For `C[C@]12CC/C(=N\O)C=C1CC[C@@H]1[C@@H]2CC[C@]2(C)C(=N/O)/C(=C/c3cccnc3)C[C@@H]12`, the GI50 in the test with 786-0 is 28.4 µM (inactive); in the test with HCT-15, 5.9 µM; in the test with HL-60 it was 0.338 µM (active); in the test with HOP-62 it was 18.7 µM (inactive); in the test on HOP-92 it was 12.8 µM (inactive); in the test on Hs-578T it was 3.63 µM (inactive). In addition, the GI50 in the test on K562 was 6.98 µM (inactive); with KM12 it was 6.98 µM (inactive); in the test with LOX IMVI, 4.76 µM (inactive); in the test with MDA-N, 12.5 µM (inactive); in the test on Malme-3M, 17.8 µM (inactive); in the test with NCI/ADR-RES, 14.3 µM (inactive). Further, the figures for the GI50 in the test with OVCAR-4, in the test with SW-620 and in the test with UACC-257 were 18.1 µM (inactive), 31.8 µM (inactive) and 17.9 µM (inactive), respectively.
`COc1cccc(C=C(C#N)C#N)c1OC`: the GI50 is > 100 µM (inactive) in the test on 786-0; > 100 µM (inactive) in the test with CAKI-1; greater than 100 µM with HCT-15; 85.9 µM (inactive) with HL-60; > 100 µM (inactive) in the test with HOP-62; > 100 µM (inactive) in the test on HOP-92. Moreover, the GI50 with K562, in the test on KM12, in the test with MDA-N, in the test on Malme-3M, in the test on NCI/ADR-RES and in the test on OVCAR-4 was > 100 µM (inactive) throughout. Moreover, the GI50 in the test on RXF 393, in the test on SK-MEL-5, in the test on SW-620 and in the test with UACC-257 was > 100 µM (inactive) in each case.
Consider `CC(=O)OC(/C=C/c1ccccc1)=C(OC(C)C)/C1=C(\c2ccccc2)SCCCSC1=O`, for which the GI50 in the test on 786-0 is > 100 µM (inactive); in the test on CAKI-1, > 100 µM (inactive); in the test on HCT-15 it was greater than 100 µM; with HL-60, 49.8 µM (inactive); with HOP-62, > 100 µM (inactive); in the test with HOP-92 it was > 100 µM (inactive). For the same molecule, the GI50 in the test on Hs-578T, in the test with K562, in the test with KM12, with LOX IMVI, with Malme-3M and in the test with NCI/ADR-RES was > 100 µM (inactive) in each case. Further, the GI50 with OVCAR-4 was 83.4 µM (inactive); with RXF 393 it was 74.3 µM (inactive); with SK-MEL-5, > 100 µM (inactive); in the test on SW-620, > 100 µM (inactive); in the test on UACC-257, > 100 µM (inactive).
`CC(=O)OC1(C)C=CC(=O)C=C1`: the GI50 in the test on 786-0 was 23.4 µM (inactive); with CAKI-1 it was 46 µM (inactive); in the test with HCT-15, 18 µM; with HL-60 it was 27.9 µM (inactive); in the test with HOP-62, 27.1 µM (inactive); in the test with HOP-92, 39 µM (inactive). Also, the GI50 was 61.7 µM (inactive) in the test with Hs-578T; 50.8 µM (inactive) in the test on K562; > 100 µM (inactive) with KM12; 32.6 µM (inactive) in the test with LOX IMVI; 31.2 µM (inactive) in the test on MDA-N; 6.3 µM (inactive) in the test on NCI/ADR-RES. The GI50 in the test with OVCAR-4 was 53.5 µM (inactive); in the test on SK-MEL-5 it was 40.2 µM (inactive); with SW-620, 60.4 µM (inactive); in the test with UACC-257 it was 17.1 µM (inactive).
In the case of `CN(C)Cc1[nH]c2ccccc2c1C(=O)c1ccccc1`, the GI50 was > 100 µM (inactive) with 786-0; > 100 µM (inactive) in the test on CAKI-1; greater than 100 µM in the test with HCT-15; 86.9 µM (inactive) in the test with HL-60; 33 µM (inactive) in the test on HOP-62; 33 µM (inactive) in the test on HOP-92. Besides, the GI50 in the test with K562 is 91.6 µM (inactive); in the test on KM12, > 100 µM (inactive); in the test with Malme-3M, > 100 µM (inactive); with OVCAR-4 it was > 100 µM (inactive); in the test with SK-MEL-5, 58.1 µM (inactive); with SW-620, > 100 µM (inactive). Moreover, the GI50 in the test on UACC-257 is > 100 µM (inactive).
Turning to `CSc1ncnc2c1ncn2CCC#N`, the GI50 in the test on 786-0, in the test with CAKI-1, in the test with HL-60, with HOP-62, in the test on HOP-92 and in the test with Hs-578T was > 100 µM (inactive) in each case. The GI50 in the test with K562, in the test on KM12, in the test on LOX IMVI, with MDA-N, in the test on Malme-3M and with NCI/ADR-RES was > 100 µM (inactive) each time. Besides, the GI50 in the test on OVCAR-4, in the test with RXF 393, in the test with SK-MEL-5, in the test on SW-620 and in the test on UACC-257 was > 100 µM (inactive) each time.
